pIC50: −log10 of the molar value.
How the values were obtained:
Type in all cases: biochemical
[1] = target: T1, PAK1 (Homo sapiens, UniProt Q13153); experiment: Additional in vitro PAK1 inhibition assay at ATP 10 uM and 1 mM
Experimental: (§1) Similar in vitro PAK1 and PAK-4 inhibition assays are conducted in compounds for the treatment of cancer, but under ATP concentrations of 10 uM and 1 mM.

[2] = target: T2, PAK4 (Homo sapiens, UniProt O96013); experiment: Additional in vitro PAK-4 inhibition assay at ATP 10 uM and 1 mM; details: 10 μM ATP; read-out: PAK4 IC50 (10 μM ATP)
Experimental: as §1

[3] = target: T1, PAK1; experiment: In vitro PAK inhibition assay (Z'-LYTE, SelectScreen), PAK1; details: read-out: PAK1 IC50
Method in brief: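 The PAK1 reaction on Ser/Thr 19 peptide runs 60 min at room temperature in 50 mM HEPES pH 7.5 with 10 mM MgCl2, 1 mM EGTA, 0.01% BRIJ-35; Z'-LYTE fluorescence read after 60 min development.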

[4] = target: PAK3 (Homo sapiens, UniProt O75914); experiment: In vitro PAK inhibition assay (Z'-LYTE, SelectScreen), PAK3; details: read-out: PAK3 IC50
Method in brief: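 Z'-LYTE FRET format: PAK3 with Ser/Thr 20 peptide in 50 mM HEPES pH 7.5, 0.01% BRIJ-35, 10 mM MgCl2, 1 mM EGTA, 1% DMSO final. Kinase reaction 60 min at room temperature, then 60 min development and fluorescence read.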

[5] = target: PAK2 (PAK65) (Homo sapiens, UniProt Q13177); experiment: In vitro PAK inhibition assay (Z'-LYTE, SelectScreen), PAK2; details: read-out: PAK2 IC50
Method in brief: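 Z'-LYTE FRET readout using Ser/Thr 20 peptide (2 μM) with 0.29–6 ng PAK2 in 50 mM HEPES pH 7.5, 0.01% BRIJ-35, 10 mM MgCl2, 1 mM EGTA, 1% DMSO. Reaction and development each ran 60 min at room temperature.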

[6] = target: T2, PAK4; experiment: In vitro PAK inhibition assay (Z'-LYTE, SelectScreen), PAK4
Method in brief: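 Z'-LYTE FRET assay with 0.1-0.75 ng PAK-4 and 2 μM Ser/Thr 20 peptide in 50 mM HEPES pH 7.5, 10 mM MgCl2, 1 mM EGTA, 0.01% BRIJ-35, 1% DMSO; ATP near apparent Km. 1 h kinase reaction at room temperature, then 1 h development; IC50 from 10-point 3-fold titrations fitted to a sigmoidal dose-response.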

[7] = 10 μM ATP, read-out: PAK1 IC50 (10 μM ATP)
[8] = 1 mM ATP, read-out: PAK1 IC50 (1 mM ATP)

T1 sequence (Q13153 whole entry): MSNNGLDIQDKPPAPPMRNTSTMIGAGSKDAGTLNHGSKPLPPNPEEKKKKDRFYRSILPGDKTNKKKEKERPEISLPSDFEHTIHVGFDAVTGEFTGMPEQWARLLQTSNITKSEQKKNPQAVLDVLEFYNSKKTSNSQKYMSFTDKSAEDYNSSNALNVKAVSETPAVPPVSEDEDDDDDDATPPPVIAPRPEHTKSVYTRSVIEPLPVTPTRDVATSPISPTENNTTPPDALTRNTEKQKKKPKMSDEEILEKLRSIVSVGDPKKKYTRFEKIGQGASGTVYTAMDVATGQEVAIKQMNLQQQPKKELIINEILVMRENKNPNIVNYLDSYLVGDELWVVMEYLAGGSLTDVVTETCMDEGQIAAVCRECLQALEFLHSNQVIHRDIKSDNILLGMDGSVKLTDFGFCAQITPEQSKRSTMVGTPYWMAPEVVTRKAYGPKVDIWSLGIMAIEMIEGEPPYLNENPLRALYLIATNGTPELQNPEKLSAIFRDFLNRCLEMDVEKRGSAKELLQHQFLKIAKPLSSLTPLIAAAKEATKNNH
T2 sequence (O96013 whole entry): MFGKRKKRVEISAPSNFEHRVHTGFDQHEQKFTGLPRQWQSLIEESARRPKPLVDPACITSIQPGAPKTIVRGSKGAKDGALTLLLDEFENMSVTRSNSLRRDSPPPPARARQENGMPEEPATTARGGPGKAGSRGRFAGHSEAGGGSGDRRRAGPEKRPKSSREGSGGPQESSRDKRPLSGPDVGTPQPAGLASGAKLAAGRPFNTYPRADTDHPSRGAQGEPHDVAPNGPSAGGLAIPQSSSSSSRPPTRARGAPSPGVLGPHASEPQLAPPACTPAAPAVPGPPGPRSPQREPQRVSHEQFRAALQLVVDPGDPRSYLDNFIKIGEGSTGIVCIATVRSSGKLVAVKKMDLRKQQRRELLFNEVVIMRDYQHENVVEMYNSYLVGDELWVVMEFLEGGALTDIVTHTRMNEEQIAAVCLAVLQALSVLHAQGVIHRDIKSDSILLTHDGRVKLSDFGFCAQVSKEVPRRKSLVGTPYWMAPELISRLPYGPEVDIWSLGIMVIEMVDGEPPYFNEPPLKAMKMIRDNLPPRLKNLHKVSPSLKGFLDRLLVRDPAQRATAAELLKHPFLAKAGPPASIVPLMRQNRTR
Chain of PAK2 (PAK65) (Q13177 whole entry): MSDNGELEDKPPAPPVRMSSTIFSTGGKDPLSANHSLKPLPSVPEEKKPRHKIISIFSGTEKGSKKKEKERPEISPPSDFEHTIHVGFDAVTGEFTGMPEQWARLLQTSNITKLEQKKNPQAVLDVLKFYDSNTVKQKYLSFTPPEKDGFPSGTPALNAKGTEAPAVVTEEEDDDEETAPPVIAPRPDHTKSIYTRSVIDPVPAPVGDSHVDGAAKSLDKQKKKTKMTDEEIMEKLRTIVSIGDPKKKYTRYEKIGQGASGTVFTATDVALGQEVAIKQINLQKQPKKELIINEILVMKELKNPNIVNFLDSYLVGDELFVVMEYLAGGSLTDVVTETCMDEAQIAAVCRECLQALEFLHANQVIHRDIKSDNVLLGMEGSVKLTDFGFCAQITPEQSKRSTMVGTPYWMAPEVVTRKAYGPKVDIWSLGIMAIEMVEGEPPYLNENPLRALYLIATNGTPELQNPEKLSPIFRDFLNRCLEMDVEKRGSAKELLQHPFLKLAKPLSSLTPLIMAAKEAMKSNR
Chain of PAK3 (O75914 1-544 isoform O75914-2): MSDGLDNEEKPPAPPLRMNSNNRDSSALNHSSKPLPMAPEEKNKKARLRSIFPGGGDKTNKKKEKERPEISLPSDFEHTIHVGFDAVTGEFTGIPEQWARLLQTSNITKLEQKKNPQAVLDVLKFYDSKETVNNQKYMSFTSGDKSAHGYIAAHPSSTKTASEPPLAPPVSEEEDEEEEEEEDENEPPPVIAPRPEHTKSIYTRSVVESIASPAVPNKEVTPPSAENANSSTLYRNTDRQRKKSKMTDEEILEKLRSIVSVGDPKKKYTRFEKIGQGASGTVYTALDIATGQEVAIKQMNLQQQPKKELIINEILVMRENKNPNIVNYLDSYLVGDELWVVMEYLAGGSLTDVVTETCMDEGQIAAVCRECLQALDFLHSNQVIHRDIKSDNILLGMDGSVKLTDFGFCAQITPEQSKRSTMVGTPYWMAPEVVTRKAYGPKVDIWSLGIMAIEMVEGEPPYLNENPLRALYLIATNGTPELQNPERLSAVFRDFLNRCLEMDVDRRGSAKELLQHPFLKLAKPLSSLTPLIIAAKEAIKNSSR

pIC50 [1, 7]	pIC50 [1, 8]	pIC50 [2]	pIC50 [3]	pIC50 [4]	pIC50 [5]	pIC50 [6]	Compound
5.30 to 6.30	≤ 5.30	≤ 5.30					Cc1nc(-c2ccc(-c3cc4cnc(NC5CCOCC5)nc4n(C4CCNC4)c3=O)c(Cl)c2)no1 (stereo not shown)
6.30 to 7.30	≤ 5.30	≤ 5.30					CCn1c(=O)c(-c2ccc(-c3noc(C)n3)cc2Cl)cc2cnc(NCCCO)nc21
6.30 to 7.30	5.30 to 6.30	≤ 5.30					Cc1nc(-c2ccc(-c3cc4cnc(NC5CC5)nc4n(Cc4cccc(CN(C)C)c4)c3=O)c(Cl)c2)no1
5.30 to 6.30	≤ 5.30	≤ 5.30					CCn1c(=O)c(-c2ccc(-c3noc(C)n3)cc2Cl)cc2cnc(NCC(=O)NC)nc21
5.30 to 6.30	5.30 to 6.30	5.30 to 6.30					CCn1c(=O)c(-c2ccc(-c3noc(C)n3)cc2Cl)cc2cnc(NC3CC3c3ccccc3)nc21 (stereo not shown)
> 7.30	5.30 to 6.30	≤ 5.30					Cc1nc(-c2ccc(-c3cc4cnc(N[C@H]5C[C@@H]5C)nc4n(CC4CCNCC4)c3=O)c(Cl)c2)no1
5.30 to 6.30	≤ 5.30	≤ 5.30					CCNc1ncc2cc(-c3ccc(-c4noc(C)n4)cc3Cl)c(=O)n(CC)c2n1
5.30 to 6.30	≤ 5.30	≤ 5.30					CCn1c(=O)c(-c2ccc(-c3noc(C)n3)cc2Cl)cc2cnc(NCCCN(C)C)nc21
5.30 to 6.30	≤ 5.30	≤ 5.30					Cc1nc(-c2ccc(-c3cc4cnc(NC5CCOCC5)nc4n(CC(=O)NC4CCNCC4)c3=O)c(Cl)c2)no1
6.30 to 7.30	≤ 5.30	≤ 5.30					Cc1nc(-c2ccc(-c3cc4cnc(NC5CCOCC5)nc4n(CC(=O)N4CCCC(N)C4)c3=O)c(Cl)c2)no1 (stereo not shown)
			< 5.30	< 5.30	< 5.30	< 5.30	CCn1c(=O)c(-c2ccc(-c3ccnnc3)cc2Cl)cc2cnc(N[C@@H]3CCOC3)nc21 [Example 62]
			> 7.30	6.30 to 7.30	> 7.30	< 5.30	CCn1c(=O)c(-c2ccc(-c3nccnc3C)cc2Cl)cc2cnc(N[C@H]3CCOC(C)(C)C3)nc21 (stereo in doubt) [Example 77]
			6.30 to 7.30	6.30 to 7.30	6.30 to 7.30	< 5.30	CCn1c(=O)c(-c2ccc(-c3noc(C)n3)cc2Cl)cc2cnc(N[C@@H]3CCOC3)nc21 [Example 54]
			6.30 to 7.30	6.30 to 7.30	6.30 to 7.30	< 5.30	Cc1cncc(-c2ccc(-c3cc4cnc(NC5CC5)nc4n(CCN)c3=O)c(Cl)c2)n1 [Example 111]
			6.30 to 7.30	6.30 to 7.30	6.30 to 7.30	< 5.30	CCn1c(=O)c(-c2ccc(-c3nccnc3C)cc2Cl)cc2cnc(NC3CCN(C)C(=O)C3)nc21 (stereo not shown) [Example 35]
			6.30 to 7.30	5.30 to 6.30	6.30 to 7.30	< 5.30	CCn1c(=O)c(-c2ccc(-c3cncc(C)n3)cc2Cl)cc2cnc(N[C@H]3CC[C@@H](N)CC3)nc21 [Example 86]
			> 7.30	6.30 to 7.30	6.30 to 7.30	< 5.30	CCn1c(=O)c(-c2ccc(-c3cncc(C)n3)cc2Cl)cc2cnc(NC3C[C@@H](C)O[C@@H](C)C3)nc21 (stereo partly shown) [Example 37]
			< 5.30	< 5.30	5.30 to 6.30	< 5.30	CCn1c(=O)c(-c2ccc(-c3nccnc3C)cc2Cl)cc2cnc(NC3CCCCC3)nc21 [Example 3]
			5.30 to 6.30	5.30 to 6.30	5.30 to 6.30	< 5.30	CCn1c(=O)c(-c2ccc(-c3nccnc3C)cc2Cl)cc2cnc(NC3CCNCC3)nc21 [Example 79]

More lines, now with the values behind:

Compound	pIC50 [1, 7]	pIC50 [1, 8]	pIC50 [2]	pIC50 [3]	pIC50 [4]	pIC50 [5]	pIC50 [6]
CCn1c(=O)c(-c2ccc(-c3cccnc3F)cc2Cl)cc2cnc(NC3CCOC3)nc21 (stereo not shown) [Example 39]				6.30 to 7.30	6.30 to 7.30	6.30 to 7.30	< 5.30
COCCn1c(=O)c(-c2ccc(-c3cnccn3)cc2Cl)cc2cnc(NC3CCOC3)nc21 (stereo not shown) [Example 53]				6.30 to 7.30	5.30 to 6.30	6.30 to 7.30	< 5.30
Cc1cncc(-c2ccc(-c3cc4cnc(N[C@@H]5CCOC5)nc4n(CCCN(C)C)c3=O)c(Cl)c2)n1 [Example 101]				> 7.30	6.30 to 7.30	> 7.30	< 5.30
6-(2-chloro-4-(5-methyl-1,2,4-oxadiazol-3-yl)phenyl)-2-(4-(1-methylpiperidin-4-yl)phenylamino)pyrido[2,3-d]pyrimidin-7(8H)-one [Example 95]				6.30 to 7.30	5.30 to 6.30	6.30 to 7.30	< 5.30
Cc1cncc(-c2ccc(-c3cc4cnc(NC5CCOCC5)nc4n(Cc4ccccc4Cl)c3=O)c(Cl)c2)n1 [Example 42]				> 7.30	6.30 to 7.30	6.30 to 7.30	< 5.30
Cc1cncc(-c2ccc(-c3cc4cnc(N[C@H]5CCOC5)nc4n(CCN)c3=O)c(Cl)c2)n1 [Example 100]				6.30 to 7.30	6.30 to 7.30	> 7.30	< 5.30
CCn1c(=O)c(-c2ccc(-c3nccnc3C)cc2C)cc2cnc(NC3CCOCC3)nc21 [Example 1, 8-ethyl-6-(2-methyl-4-(3-methylpyrazin-2-yl)phenyl)-2-(tetrahydro-2H-pyran-4-ylamino)pyrido[2,3-d]pyrimidin-7(8H)-one]				6.30 to 7.30	6.30 to 7.30	6.30 to 7.30	< 5.30
Cc1cncc(-c2ccc(-c3cc4cnc(NC(C)C)nc4n([C@H]4CC[C@H](N)CC4)c3=O)c(Cl)c2)n1 [Example 116]				> 7.30	> 7.30	> 7.30	5.30 to 6.30
Cc1nccnc1-c1ccc(-c2cc3cnc(NC4CCOCC4)nc3n(C3CCCC3)c2=O)c(Cl)c1 [Example 88, 6-(2-chloro-4-(3-methylpyrazin-2-yl)phenyl)-8-cyclopentyl-2-((tetrahydro-2H-pyran-4-yl)amino)pyrido[2,3-d]pyrimidin-7(8H)-one]				6.30 to 7.30	6.30 to 7.30	6.30 to 7.30	< 5.30
CCn1c(=O)c(-c2cc(C)c(-c3cncc(C)n3)cc2Cl)cc2cnc(N[C@@H]3CCOC3)nc21 [Example 71]				> 7.30	6.30 to 7.30	> 7.30	< 5.30
Cc1nccnc1-c1ccc(-c2cc3cnc(NC4CCOCC4)nc3[nH]c2=O)c(Cl)c1 [Example 10]				6.30 to 7.30	5.30 to 6.30	6.30 to 7.30	< 5.30
Cc1cncc(-c2ccc(-c3cc4cnc(N[C@H]5CCOC5)nc4n(CCN(C)C)c3=O)c(Cl)c2)n1 [Example 103]				6.30 to 7.30	5.30 to 6.30	6.30 to 7.30	< 5.30
Cc1nccnc1-c1ccc(-c2cc3cnc(NC4CCOCC4)nc3n(C)c2=O)c(Cl)c1 [Example 9]				6.30 to 7.30	6.30 to 7.30	6.30 to 7.30	< 5.30

Source: patent US20130116263A1, “PAK INHIBITORS FOR THE TREATMENT OF CELL PROLIFERATIVE DISORDERS” (AFRAXIS, INC., priority 2011, published 2013)
